Data as given in patent EP4685153A1 (priority 2023, dated 2024).
Residues, ends and D or L forms follow the SMILES beside them. *: point of attachment. Succinyl(4-O-cholesteryl) = CC(C)CCC[C@@H](C)[C@H]1CC[C@H]2[C@@H]3CC=C4C[C@@H](OC(=O)CCC(=O)*)CC[C@]4(C)[C@H]3CC[C@]12C

Columns and labels:
[1] = test system: HIV-1 strain NL4-3 pseudovirus; settings: strain NL4-3 pseudovirus
[2] = Circular dichroism of lipopeptide alone; assay type: physicochemical; settings: CD, 10 µM in PBS pH 7.2
H7N9 = settings: 48 h
[3] = test system: T20-resistant mutant strains (HIV-1 strain NL4-3); settings: for IC50: T20-resistant mutant strains ( strain NL4-3, 48 h); for inhibitory activity against 12 drug-resistant mutant strains higher than that of the LP-98: versus LP-98
N44 = N44 (Human immunodeficiency virus type 1 group M subtype B, UniProt P04578); assay: Circular dichroism of lipopeptide complex with target sequence N44; settings: CD; for Tm value of the mixture with N44: [θ]222, 20-98 °C at 2 °C/min; for α-helix content of the mixture with N44: lipopeptide and N44 each 10 µM in PBS pH 7.2
[4] = test system: protease K, trypsin, or α-chymotrypsin
VSV = settings: 48 h
[5] = In vitro cytotoxicity (CCK-8), Huh-7 cells; assay type: cell-based; settings: human, CCK-8, 48 hours
Procedure: (§1) The in vitro cytotoxicity was detected by using a CCK-8 cell proliferation/toxicity assay kit (manufacturer: Abbkine, Cat. No.: KTC 011001). […] By using GraphPad Prism software, the inhibition rate curve was fitted and the half-maximal cytotoxic concentration (CC50) of the drug was calculated.

seven test cells = assay: In vitro cytotoxicity (CCK-8), average over seven test cells; assay type: cell-based; settings: CC50/IC50
Procedure: as §1

[6] = test system: HIV-1 strain JRFL pseudovirus; settings: strain JRFL pseudovirus
RABV = settings: 48 h
[7] = In vitro cytotoxicity (CCK-8), MDCK cells; assay type: cell-based; settings: dog, CCK-8, 48 hours
Procedure: as §1

[8] = test system: representative pandemic HIV-1 strain pseudoviruses; settings: for IC50: representative pandemic strain pseudoviruses, 48 h; for inhibitory activity against 12 pseudoviruses higher than that of the T20: versus T20
[9] = In vitro cytotoxicity (CCK-8), HEK293T cells; assay type: cell-based; settings: human, CCK-8, 48 hours
Procedure: as §1

[10] = test system: HIV-1 strain SG3.1 living virus; settings: for inhibitory activity higher than that of the T20, SG3.1: TZM-bl cells, versus T20
MARV = settings: 48 h
[11] = test system: HIV-1 envelope protein (Env); assay: Env-mediated cell-cell fusion inhibition (DSP reporter system); settings: for IC50: read-out: average IC50 value, membrane fusion of 12 viruses, average over Env of 12 representative pandemic HIV-1 strains; for inhibitory activity against membrane fusions of 12 viruses higher than that of the T20: versus T20
MERS-CoV = settings: 48 h
[12] = test system: replicative HIV-1 strain JR-CSF; settings: for inhibitory activity higher than the T20, JR-CSF: TZM-bl cells, versus T20; for IC50: replicative strain JR-CSF, 48 h
[13] = In vitro cytotoxicity (CCK-8), Hep-2 cells; assay type: cell-based; settings: human, CCK-8, 48 hours
Procedure: as §1

EBOV = settings: 48 h
[14] = Temperature stability experiment (antiviral activity after storage); settings: 300 µM aqueous solution, room temperature or 37 °C, various time periods; NL4-3 pseudovirus, TZM-bl cells
[15] = In vitro cytotoxicity (CCK-8), MT-4 cells; assay type: cell-based; settings: human, CCK-8, 48 hours
Procedure: as §1

[16] = Human serum stability experiment (antiviral activity after incubation); settings: 20% human serum, 37 °C, 0 to 240 minutes; NL4-3 pseudovirus, TZM-bl cells
[17] = In vitro cytotoxicity (CCK-8), 293T/ACE2 cells; assay type: cell-based; settings: human, CCK-8, 48 hours
Procedure: as §1

[18] = In vitro cytotoxicity (CCK-8), TZM-bl cells; assay type: cell-based; settings: human, CCK-8, 48 hours
Procedure: as §1

Sequence of N44 (P04578 538-581): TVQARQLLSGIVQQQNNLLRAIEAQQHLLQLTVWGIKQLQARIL

Compound	IC50 [1]	α-helix content, lipopeptide alone [2]	IC50 (H7N9)	IC50 [3]	inhibitory activity against 12 drug-resistant mutant strains higher than that of the LP-98 [3]	Tm value of the mixture with N44 (N44)	α-helix content of the mixture with N44 (N44)	change in antiviral activity after treatment with three proteases [4]	IC50 (VSV)	CC50 at 48 h [5]	therapeutic selective index (SI) (seven test cells)	IC50 [6]	IC50 (RABV)	CC50 at 48 h [7]	IC50 [8]	inhibitory activity against 12 pseudoviruses higher than that of the T20 [8]	CC50 at 48 h [9]	inhibitory activity higher than that of the T20, SG3.1 [10]	IC50 (MARV)	IC50 [11]	other results
CC[C@H](C)[C@H](NC(=O)[C@H](CCCCN)NC(=O)[C@H](CCCCN)NC(=O)[C@H](CCC(=O)O)NC(=O)[C@H](CC(C)C)NC(=O)[C@H](CCC(=O)O)NC(=O)[C@H](CCC(=O)O)NC(=O)[C@H](CC(C)C)NC(=O)[C@H](CCC(=O)O)NC(=O)[C@H](CCCCN)NC(=O)[C@H](CCC(=O)O)NC(=O)[C@H](Cc1ccc(O)cc1)NC(=O)[C@H](CCC(=O)O)NC(=O)[C@H](CCC(=O)O)NC(=O)[C@H](Cc1ccc(O)cc1)NC(=O)[C@H](CCC(=O)O)NC(C)=O)C(=O)N[C@@H](CCC(=O)O)C(=O)N[C@@H](CCC(=O)O)C(=O)N[C@@H](CC(C)C)C(=O)N[C@@H](CC(C)C)C(=O)N[C@@H](CCCCN)C(=O)N[C@@H](CCCCN)C(=O)N[C@@H](C)C(=O)N[C@@H](CCC(=O)O)C(=O)N[C@@H](CCC(=O)O)C(=O)N[C@@H](CCC(N)=O)C(=O)N[C@@H](CCC(N)=O)C(=O)N[C@@H](CCCCN)C(=O)N[C@@H](CCCCN)C(=O)N[C@@H](CC(N)=O)C(=O)N[C@@H](CCC(=O)O)C(=O)N[C@@H](C)C(=O)N[C@@H](C)C(=O)N[C@@H](C)C(=O)N[C@@H](CCCCN)C(=O)N[C@@H](CCCCNC(=O)CCC(=O)O[C@H]1CC[C@@]2(C)C(=CC[C@H]3[C@@H]4CC[C@H]([C@H](C)CCCC(C)C)[C@@]4(C)CC[C@@H]32)C1)C(N)=O [LP-127] (Ac-EYEEYEKELEELEKKIEELLKKAEEQQKKNEAAAKK(Succinyl(4-O-cholesteryl))-NH2)	0.00501 nM	57%	415 nM	0.00702 nM	379 folds	92 °C	68%	no significant change	1510 nM	31300 nM	very high	0.00563 nM	1730 nM	12900 nM	0.00489 nM	4101 folds	9070 nM	1427 folds	144 nM	0.00497 nM	inhibitory activity against membrane fusions of 12 viruses higher than that of the T20 [11]: 2256 folds; IC50 (MERS-CoV): 383 nM; inhibitory activity higher than the T20, JR-CSF [12]: 539 folds; IC50 [12]: 0.0104 nM; CC50 at 48 h [13]: 16500 nM; IC50 (EBOV): 61.7 nM; change in antiviral activity after treatment at different temperatures [14]: no significant change; CC50 at 48 h [15]: 15400 nM; change in antiviral activity after treatment with human serum [16]: no significant change; CC50 at 48 h [17]: 14400 nM; CC50 at 48 h [18]: 10200 nM
CC[C@H](C)[C@H](NC(=O)[C@H](CCCCN)NC(=O)[C@H](CCCCN)NC(=O)[C@H](CCC(=O)O)NC(=O)[C@H](CC(C)C)NC(=O)[C@H](CCC(=O)O)NC(=O)[C@H](CCC(=O)O)NC(=O)[C@H](CC(C)C)NC(=O)[C@H](CCC(=O)O)NC(=O)[C@H](CCCCN)NC(=O)[C@H](CCC(=O)O)NC(=O)[C@H](Cc1ccc(O)cc1)NC(=O)[C@H](CCC(=O)O)NC(C)=O)C(=O)N[C@@H](CCC(=O)O)C(=O)N[C@@H](CCC(=O)O)C(=O)N[C@@H](CC(C)C)C(=O)N[C@@H](CC(C)C)C(=O)N[C@@H](CCCCN)C(=O)N[C@@H](CCCCN)C(=O)N[C@@H](C)C(=O)N[C@@H](CCC(=O)O)C(=O)N[C@@H](CCC(=O)O)C(=O)N[C@@H](CCC(N)=O)C(=O)N[C@@H](CCC(N)=O)C(=O)N[C@@H](CCCCN)C(=O)N[C@@H](CCCCN)C(=O)N[C@@H](CC(N)=O)C(=O)N[C@@H](CCC(=O)O)C(=O)N[C@@H](C)C(=O)N[C@@H](C)C(=O)N[C@@H](C)C(=O)N[C@@H](CCCCN)C(=O)N[C@@H](CCCCNC(=O)CCC(=O)O[C@H]1CC[C@@]2(C)C(=CC[C@H]3[C@@H]4CC[C@H]([C@H](C)CCCC(C)C)[C@@]4(C)CC[C@@H]32)C1)C(N)=O [LP-128] (Ac-EYEKELEELEKKIEELLKKAEEQQKKNEAAAKK(Succinyl(4-O-cholesteryl))-NH2)	0.00327 nM	66%	353 nM	0.00913 nM	292 folds	90 °C	84%	no significant change	1490 nM	40300 nM	very high	0.00497 nM	1130 nM	18000 nM	0.00319 nM	6286 folds	8720 nM	4282 folds	534 nM	0.00402 nM	IC50 ([10]; strain SG3.1 living virus): 0.00175 nM; inhibitory activity against membrane fusions of 12 viruses higher than that of the T20 [11]: 2790 folds; IC50 (MERS-CoV): 456 nM; inhibitory activity higher than the T20, JR-CSF [12]: 750 folds; IC50 [12]: 0.00747 nM; CC50 at 48 h [13]: 12500 nM; IC50 (EBOV): 274 nM; change in antiviral activity after treatment at different temperatures [14]: no significant change; CC50 at 48 h [15]: 28200 nM; change in antiviral activity after treatment with human serum [16]: no significant change; CC50 at 48 h [17]: 24100 nM; CC50 at 48 h [18]: 7490 nM
